From PubChem BioAssay AID720588 (Broad Institute, 2013)
Several values for one entry are separate records, joined by “and”; a condition that tells them apart may be missing. Equal entries are not always repeated.

Test system: HEK293T viability, CellTiter-Glo ATP luminescence, 72 h
Assay: ATP-based viability loss in HEK293T cells – cell-based, CellTiter-Glo luminescence, cherry-pick, set 3, cytotoxicity control, dose response (AID 720588);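 further: potency for luminescence loss meaning cytotoxic compounds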

Row | SMILES | AC35
1 | C[C@@H]1CN([C@@H](C)CO)C(=O)c2cccc(NS(=O)(=O)c3ccccc3)c2O[C@@H]1CN(C)Cc1ccc(C(=O)Nc2ccccc2N)cc1 | 2.29 µM
2 | O=C(CCc1ccccc1)NC(c1cccs1)c1cc(Cl)c2cccnc2c1O (stereo not given) | 7.93 µM
3 | C[C@H]1CN([C@@H](C)CO)C(=O)c2cc(NS(=O)(=O)c3ccc(Cl)cc3)ccc2O[C@H]1CN(C)Cc1ccc(Cl)c(Cl)c1 | 16.5 µM
4 | CC12CCC3C(CCC4(O)CC(O)CCC34C=NO)C1(O)CCC2C1=COC(=O)C1 (stereo not given) | 0.25 µM
5 | O=C(O)c1ccc(N/N=C/c2ccc3nccnc3c2)cc1 | 11.9 µM
6 | CC(=O)OC1CC(OC2C(O)CC(OC3C(O)CC(OC4CCC5(C)C(CCC6C5CCC5(C)C(C7=CC(=O)OC7)CCC65O)C4)OC3C)OC2C)OC(C)C1OC1OC(CO)C(O)C(O)C1O (stereo not given) | 0.0583 µM
7 | CN1c2ccc(-c3ccc(C#N)cc3)cc2[C@H]2[C@H](CCN2S(=O)(=O)c2cccc(F)c2)[C@H]1CO | 13.4 µM
8 | CC(C)(C)C(=O)Cn1ncc(Cl)c(Cl)c1=O | 14.8 µM
9 | COc1cccc(-c2cc(NC=O)c3ncc(-c4ccc(C(C)=O)cc4)n3c2)c1 | 8.98 µM
10 | C[C@H](CO)N1C[C@H](C)[C@H](CN(C)Cc2ccc(C(=O)Nc3ccccc3N)cc2)Oc2c(cccc2N(C)C)C1=O | 11.3 µM
11 | COC(=O)C[C@H]1CC[C@@H]2[C@H](COc3ccc(NC(=O)Nc4cccc(Cl)c4)cc3C(=O)N2C)O1 | 17.8 µM
12 | C[C@]12CC[C@H](O)C[C@H]1CC[C@@H]1C2CC[C@]2(C)[C@@H](C3=CC(=O)OC3)[C@@H](O)C[C@]12O (stereo not given in full) | 1.86 µM
13 | C[C@@H]1CN([C@@H](C)CO)C(=O)c2cc(NC(=O)c3ccccc3)ccc2O[C@@H](C)CCCCO[C@H]1CN(C)C(=O)Nc1cccc2ccccc12 | 0.637 µM
14 | C[C@@H]1CCCCO[C@H](CN(C)Cc2ccc(C(F)(F)F)cc2)[C@H](C)CN([C@H](C)CO)C(=O)c2cc(NC(=O)CCCN(C)C)ccc2O1 | 14.6 µM
15 | C[C@]12CC[C@H](O)C[C@H]1CC[C@@H]1[C@@H]2CC[C@]2(C)[C@@H](C3=CC(=O)OC3)CC[C@]12O | 0.629 µM
16 | C[C@@H]1CCCCO[C@H](CN(C)Cc2ccc(C(=O)Nc3ccccc3N)cc2)[C@@H](C)CN([C@H](C)CO)C(=O)c2cc(NS(=O)(=O)c3ccc(F)cc3)ccc2O1 | 13.3 µM
17 | O=C(NC[C@@H]1N[C@@H](CO)[C@H]1c1ccc(C2=CCCCC2)cc1)c1cccc(F)c1 | 10.1 µM
18 | C[C@@H]1CN([C@@H](C)CO)C(=O)c2cc(NS(=O)(=O)c3ccc(Cl)cc3)ccc2O[C@@H]1CN(C)Cc1ccc(C(=O)Nc2ccccc2N)cc1 | 9.95 µM
19 | CCCCc1c(-c2ccccc2OC)ncn1Cc1ccc(C(C)(C)C)cc1 | 6.42 µM
20 | CCCCCCCCn1c2c(c(=N)c3c1CCC3)CCCC2 | 3.51 µM
21 | C[C@@H]1CN([C@H](C)CO)C(=O)c2cc(C#CCN(C)C)cnc2O[C@H]1CN(C)Cc1ccc(-c2ccccc2)cc1 | 12.4 µM
22 | COC(=O)C1=C(C)N(Cc2cccc(C(F)(F)F)c2)C(=NCc2ccc(OC)cc2)NC1c1cccc(F)c1 (stereo not given) | 4.96 µM

Row | SMILES | AC35
23 | CC(=O)OC1CC2(O)C3CCC4CC(O)CCC4(C)C3CCC2(C)C1C1=CC(=O)OC1 (stereo not given) | 0.262 µM
24 | CN(C)CC1CCC/C(=C\c2ccc(OC(=O)c3ccc(Cl)cc3)cc2)C1=O (stereo not given) | 11.3 µM
25 | CCCCCCCN(c1ccccc1)[C@@H]1C[C@H]2CCCC(=O)N3CC[C@@H](C1)[C@@H]23 | 13.3 µM
26 | O=C(Sc1cccc2cccnc12)c1ccccc1Br | 7.7 µM
27 | COC1C(O)C(C)OC(OC2CCC3(C)C(CCC4C3C(O)CC3(C)C(C5=CC(=O)OC5)CCC43O)C2)C1O (stereo not given) | 0.244 µM
28 | C[C@H]1CN([C@@H](C)CO)C(=O)c2cc(N(C)C)ccc2O[C@H]1CN(C)Cc1ccc(C(=O)Nc2ccccc2N)cc1 | 3.65 µM
29 | O=C(Nc1ccccc1F)N1CCCCN2[C@H](CO)[C@H](c3ccc(/C=C/c4ccccc4)cc3)[C@H]2C1 | 13.7 µM
30 | C[C@@H]1CN([C@H](C)CO)S(=O)(=O)c2ccc(C#CC(C)(C)O)cc2O[C@H]1CN(C)Cc1ccc(-c2ccccc2)cc1 | 7.28 µM
31 | Nc1nc(N)c(-c2cccc(C(F)(F)F)c2)c(Cc2cccc(C(F)(F)F)c2)n1 | 8.95 µM
32 | O=C(Nc1ccc(Br)cc1)c1ccc(F)c(S(=O)(=O)N2CCN(c3ccccn3)CC2)c1 | 8.36 µM
33 | CN(C)c1ccc(N=Nc2nc3ccccc3n2C)cc1 | 12.5 µM
34 | COc1cccc(O)c1CN1CCC(C(=O)Nc2ccc(-c3cccc(C)c3)cc2)CC1 | 11.8 µM
35 | COC(=O)c1ccccc1-c1c2ccc(=N)cc-2oc2cc(N)ccc12 | 15.3 µM
36 | CCCCCCCCCCCCCCCCn1cc[n+](C)c1 | 10.5 µM
37 | N#CC(=C1C=CC(=NO)C(Cl)=C1)c1ccccc1 | 11.2 µM
38 | C=CCOC(=O)c1sc(NC(=O)c2ccc(OC)cc2)nc1C | 0.901 µM
39 | Nc1nc(=S)c2ncn([C@@H]3O[C@H](CO)[C@@H](O)[C@H]3O)c2[nH]1 | 7.33 µM
40 | CC(C)(C)c1ccc(/C=N/Nc2ccc(C(=O)O)cc2)cc1 | 16.5 µM
41 | C[C@@H]1CN([C@H](C)CO)C(=O)c2cc(NC(=O)c3ccccc3)ccc2O[C@@H](C)CCCCO[C@H]1CN(C)C(=O)Nc1cccc2ccccc12 | 2.06 µM
42 | CN(C[C@H]1N[C@@H](CO)[C@@H]1c1ccc(C2=CCCC2)cc1)C(=O)c1ccc(F)cc1 | 5.64 µM
43 | C[C@H](CO)N1C[C@H](C)[C@H](CN(C)Cc2ccc(C(=O)Nc3ccccc3N)cc2)Oc2ccc(NC(=O)C3CC3)cc2CC1=O | 3.6 µM
44 | C[C@]12CC[C@H](O)C[C@H]1CC[C@@H]1[C@@H]2C[C@@H](O)[C@]2(C)[C@@H](C3=CC(=O)OC3)CC[C@]12O | 1.16 µM

Row | SMILES | AC35
45 | C=C(C(=O)c1ccccc1)C(C(=C)C(=O)c1ccccc1)c1ccc(OC)cc1 | 5.68 µM
46 | COc1ccc(CC(N)c2csc(NC(=O)Nc3cccc(C(F)(F)F)c3)n2)cc1 (stereo not given) | 10.1 µM
47 | Cc1cc(-c2nc3cc(F)ccc3s2)ccc1N | 16.9 µM
48 | COc1ccc(-c2ccc3c(c2)[C@H]2[C@H](CCN2S(=O)(=O)c2ccc(OC)cc2)[C@@H](CO)N3C)cc1 | 24.5 µM
49 | COc1ccc(S(=O)(=O)Nc2ccc3c(c2)C(=O)N([C@H](C)CO)C[C@@H](C)[C@@H](CN(C)Cc2ccc(C(=O)Nc4ccccc4N)cc2)O3)cc1 | 15 µM
50 | CN(Cc1cnc2nc(N)nc(N)c2n1)c1ccc(C(=O)N[C@@H](CCC(=O)O)C(=O)O)cc1 | 0.0442 µM and 0.0275 µM
51 | C[C@@H]1O[C@@H](O[C@@H]2C=C3CCC4C(CC[C@]5(C)[C@@H](c6ccc(=O)oc6)CC[C@]45O)[C@@]3(C)CC2)[C@H](O)[C@H](O)[C@H]1O (stereo not given in full) | 0.0201 µM
52 | CN=c1scc(-c2ccccc2F)n1/N=C/c1ccc[nH]1 | 10.8 µM
53 | Cc1ccc(S(=O)(=O)Nc2ccc3c(c2)C(=O)N([C@@H](C)CO)C[C@H](C)[C@@H](CN(C)Cc2ccc(C(F)(F)F)cc2)OCCCC[C@@H](C)O3)cc1 | 12.8 µM
54 | Cc1nc(N)nc(N)c1/C=C/C(C)(C)c1ccc(Cl)cc1 | 0.0229 µM
55 | Cc1nc(N)nc(N)c1CCCc1ccc(Cl)c(Cl)c1 | 3.58 µM
56 | Cc1cc2c(C(C)C)c(O)c(O)c(C=O)c2c(O)c1-c1c(C)cc2c(C(C)C)c(O)c(O)c(C=O)c2c1O | 9.42 µM
57 | Nc1nc2cc3c(cc2cc1C(=O)NCCc1c[nH]c2ccccc12)OCO3 | 5.04 µM
58 | C[C@@H]1CN([C@H](C)CO)C(=O)c2cc(N(C)C)ccc2O[C@H]1CN(C)Cc1ccc(C(=O)Nc2ccccc2N)cc1 | 16.5 µM
59 | C[C@@H]1CN([C@@H](C)CO)C(=O)c2cc(NC(=O)Nc3ccccc3)ccc2O[C@@H]1CN(C)Cc1ccc(C(=O)Nc2ccccc2N)cc1 | 8.46 µM
60 | C[C@H]1CN([C@@H](C)CO)S(=O)(=O)c2ccc(C#Cc3ccncc3)cc2O[C@@H]1CN(C)S(=O)(=O)c1ccccc1 | 12.3 µM
61 | Cc1ccc(C)c(S(=O)(=O)N2CCN(c3ncnc4sccc34)CC2)c1 | 4.95 µM
62 | COc1ccc(OC)c(-c2nnc3n2N=C(c2ccc(OC)c(OC4CCCC4)c2)CS3)c1 | 11.6 µM
63 | C[C@@H]1CN([C@H](C)CO)C(=O)c2cccc(N(C)C)c2O[C@@H]1CN(C)Cc1ccc(C(=O)Nc2ccccc2N)cc1 | 11.7 µM
64 | C[C@]12CC[C@H]3[C@@H](CC[C@]4(O)C[C@@H](O)CC[C@]34C=O)[C@@]1(O)CC[C@@H]2C1=CC(=O)OC1 | 0.774 µM
65 | Oc1cccc(-c2nnc(-c3cccc(O)c3)nn2)c1 | 7.1 µM
66 | O=c1c(Cl)cc(Cl)nn1-c1ccccc1 | 19.2 µM

Row | SMILES | AC35
67 | N#C[C@@H]1[C@H](c2ccc(C#Cc3ccc(F)cc3)cc2)[C@@H](CO)N1C(=O)Nc1ccc(F)cc1 | 12.6 µM
68 | CCc1ccc(/C=C2\SC(=S)N(CCCC(=O)N3CCN(C)CC3)C2=O)cc1 | 17.6 µM
69 | CC(=O)OC1CC(OC2C(O)CC(OC3C(O)CC(OC4CCC5(C)C(CCC6C5CC(O)C5(C)C(C7=CC(=O)OC7)CCC65O)C4)OC3C)OC2C)OC(C)C1OC1OC(CO)C(O)C(O)C1O (stereo not given) | 0.182 µM
70 | C[C@H]1CN([C@@H](C)CO)S(=O)(=O)c2ccc(C#Cc3ccncc3)cc2O[C@@H]1CN(C)C(=O)Nc1ccc2c(c1)OCO2 | 2.99 µM
71 | COC(=O)Cc1[nH]n(-c2nc3ccccc3s2)c(=O)c1C(C)=Nc1ccc(OC)cc1 | 14 µM
72 | Cc1ccc(C(C)C)c(OCc2ccc(C(=O)N/N=C/c3ccc(O)cc3O)cc2)c1 | 4.02 µM
73 | S=c1[nH]nc(-c2cc(-c3ccccc3)n[nH]2)n1/N=C/C(Br)=C/c1ccccc1 | 12.4 µM
74 | O=C1Nc2cc(C(=O)NCCN3CCCCCC3)ccc2S/C1=C\c1ccccc1 | 11.7 µM
75 | CC1=NN(c2ccccc2)C(=O)/C1=C\C=C\c1ccccc1 | 19.6 µM
76 | O=C(NCc1ccc(F)cc1)N1[C@H]2CC[C@@H]1C=C(c1ccc(F)cc1OCc1ccccc1)C2 | 14.4 µM
77 | O=c1ccc2ccccc2c2ccccc12 | 14.1 µM
78 | CN1c2ccc(-c3ccc(C#N)cc3)cc2[C@H]2[C@H](CCN2S(=O)(=O)c2cccc(F)c2)[C@@H]1CO | 23.4 µM
79 | C[C@@H]1CN([C@H](C)CO)C(=O)Cc2cc(NC(=O)CCCCCC(=O)Nc3ccccc3N)ccc2O[C@@H]1CN(C)CC1CCCCC1 | 20.1 µM
80 | C[C@@H]1CN([C@@H](C)CO)C(=O)Cc2cc(N(C)C)ccc2O[C@H]1CN(C)Cc1ccc(C(=O)Nc2ccccc2N)cc1 | 7.46 µM
81 | O=C1NC(=O)N(Cc2ccco2)C(=O)/C1=C/C=C/c1ccco1 | 13.7 µM
82 | Cc1nc(N)nc(N)c1-c1ccc(Cl)c(Cl)c1 | 1.72 µM
83 | O=C(Nc1ccc(F)cc1)N1CCCCN2[C@@H](CO)[C@H](c3ccc(C4=CCCCC4)cc3)[C@@H]2C1 | 9.39 µM
84 | CCN1CCS/C1=C\C=C\C1=[N+](CC)CCS1 | 11.2 µM
85 | C[C@H](CO)N1C[C@H](C)[C@@H](CN(C)Cc2ccc(C(F)(F)F)cc2)OCCCC[C@H](C)Oc2ccc(NS(=O)(=O)c3ccc(F)cc3)cc2C1=O | 15.1 µM
